In patent US5585353A, “Antibiotic peptides containing D-amino acids” (The Rockefeller University, priority 1994, dated 1996):
Like-named read-outs stand apart in the source and are kept apart here. Residues, ends and D or L forms follow the SMILES beside them. No end group written: not given here.

Columns and labels:
[1] = tested on: Sheep red cells; experiment: inhibition zone assay, lethal concentration on sheep red cells; format: cell-based; conditions: thin agarose plates
Protocol: (§1) Thin agar or agarose plates (8.5 cm diameter) were prepared with 6 ml of rich medium containing 100 ug/ml of streptomycin and 2×10^5 viable cells of a test organism resistant to streptomycin. Wells of 3.5 mm diameter were punched in the plates and 3 ul of serially diluted samples were placed in the wells. The diameters of the zones of inhibition around the wells were measured after overnight incubation at 30° or 37° C. For each peptide the squares of the zone diameters were plotted against the logarithm of the concentration, and from the slopes and intercepts the lethal concentrations were calculated as described by Hultmark (1983) EMBO J. 2, 571-76 or Hultmark et al (1982) Eur. J. Biochem. 127 207-217 each of which being incorporated herein by reference.
(§2) Lethal Concentrations calculated from inhibition zones on thin agarose
(§3) S. aureus Cowan 1; Strep: S. pyogenes; SRC: Sheep red cells.; *all amino

[2] = tested on: P. aeruginosa OT97; experiment: inhibition zone assay, lethal concentration; format: cell-based; conditions: P. aeruginosa OT97, thin agarose plates
Protocol: as §1, §2
(§4) plates seeded with the respective organisms. D21: E. coli; OT97: P.
(§5) aeruginosa; Bs11: B. subtilis; +ME: plates prepared with medium E; Staph: […]

[3] = tested on: immune inhibitor A (In A); format: in vitro ADME; conditions: InA series, Control (no Enzyme), 20 min at 36° C.; for Zone of inhibition: peptide with water
Protocol: (§6) FIGS. 1 and 2 graphically illustrate the resistance of the compounds of this invention to enzymatic hydrolysis by trypsin or immune inhibitor A (In A). The experiments were conducted as follows:
(§7) The original solutions of the enzymes contained 5 mg/ml in the case of trypsin and 0.1 mg/ml in the case of InA. These two samples were diluted as follows: A 10^-1, B 10^-2, C 10^-3 and D 10^-4. From each dilution, 2 ul were mixed with 2 ul of two peptides (D-CA and L-CA, both containing 1.3 ug/ul=162 pmol/ul). Control mixtures were made with 2 ul water and 2 ul peptide. All samples were incubated for 20 min at 36° C. Before and after the incubation, all samples were kept on ice. After the incubation 3 ul were placed in wells on plates seeded with E. coli D21 in order the determine the amount of antibiotic that was left. The diameter of the inhibition zone was recorded and compared with a previously prepared a standard curve. Results are as given in the table and illustrated in the figures.

[4] = biological target: immune inhibitor A (In A) (Bacillus thuringiensis subsp. alesti, UniProt P23382); format: in vitro ADME; conditions: 20 min at 36° C.; for Zone of inhibition: E. coli D21 plates
immune inhibitor A (In A) (Bacillus thuringiensis subsp. alesti, UniProt P23382), sequence (P23382 41-687): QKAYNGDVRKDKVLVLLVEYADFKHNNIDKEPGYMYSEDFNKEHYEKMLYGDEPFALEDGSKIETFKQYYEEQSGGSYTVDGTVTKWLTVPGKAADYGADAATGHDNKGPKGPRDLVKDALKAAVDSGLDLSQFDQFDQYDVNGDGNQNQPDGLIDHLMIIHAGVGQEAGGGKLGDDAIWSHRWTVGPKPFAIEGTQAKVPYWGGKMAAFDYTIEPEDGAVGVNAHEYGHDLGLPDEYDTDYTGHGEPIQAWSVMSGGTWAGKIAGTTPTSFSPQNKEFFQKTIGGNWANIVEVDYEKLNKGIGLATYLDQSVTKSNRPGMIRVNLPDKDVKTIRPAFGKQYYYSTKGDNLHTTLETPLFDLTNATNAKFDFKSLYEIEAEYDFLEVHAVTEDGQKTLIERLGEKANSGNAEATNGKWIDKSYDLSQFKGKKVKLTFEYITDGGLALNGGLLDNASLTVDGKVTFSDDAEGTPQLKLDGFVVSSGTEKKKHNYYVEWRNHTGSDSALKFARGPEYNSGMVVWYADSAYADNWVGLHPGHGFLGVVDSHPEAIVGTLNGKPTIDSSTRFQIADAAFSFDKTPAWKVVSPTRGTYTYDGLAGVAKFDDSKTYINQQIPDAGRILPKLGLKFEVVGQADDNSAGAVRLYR
Protocol: as §6, §7

[5] = tested on: S. pyogenes; experiment: inhibition zone assay, lethal concentration; format: cell-based; conditions: thin agarose plates
Protocol: as §1, §2, §3

[6] = tested on: E. coli D21; experiment: inhibition zone assay, lethal concentration; format: cell-based; conditions: E. coli D21, thin agarose plates
Protocol: as §1, §2, §4

[7] = tested on: trypsin; experiment: proteolytic resistance to trypsin, residual antibiotic by inhibition zone on E. coli D21; format: in vitro ADME; conditions: 20 min at 36° C.
Protocol: as §6, §7

[8] = tested on: B. subtilis Bs11; experiment: inhibition zone assay, lethal concentration; format: cell-based; conditions: for Lethal Concentrations Bs11 +ME: B. subtilis Bs11, plates prepared with medium E; for Lethal Concentrations Bs11: B. subtilis Bs11, thin agarose plates
Protocol: as §1, §2, §5

[9] = tested on: S. aureus Cowan 1; experiment: inhibition zone assay, lethal concentration; format: cell-based; conditions: S. aureus Cowan 1, thin agarose plates
Protocol: as §1, §2
aeruginosa; Bs11: B. subtilis; +ME: plates prepared with medium E; Staph:
as §3

[10] = InA dilution A (10^-1 of 0.1 mg/ml)
[11] = Trypsin dilution A (10^-1 of 5 mg/ml), E. coli D21 plates
[12] = Trypsin dilution B (10^-2), E. coli D21 plates
[13] = Trypsin dilution C (10^-3), E. coli D21 plates
[14] = Trypsin dilution D (10^-4), E. coli D21 plates
[15] = Trypsin series, Control (no enzyme)
[16] = Trypsin series, Control (no enzyme), peptide with water

## KWKLFKKIEKVGQNIRDGIIKAGPAVAVVGQATQIAK-NH2 [Compound 1, Cecropin A]
[1]
  Lethal Concentrations SRC: > 200 µM
[2]
  Lethal Concentrations OT97: 1 µM
[3]
  Amount of peptide left: 469 pmol
  Conc.: 156 µM
  Percent remaining: 96%
  Zone of inhibition: 1.49 cm
[4]; InA dilution A (10^-1)
  Amount of peptide left: 0 pmol
  Conc.: 0 µM
  Percent remaining: 0%
[4]; [10]
  Zone of inhibition: None
[4]; InA dilution B (10^-2)
  Amount of peptide left: 316 pmol
  Conc.: 105 µM
  Percent remaining: 65%
  Zone of inhibition: 1.42 cm
[4]; InA dilution C (10^-3)
  Amount of peptide left: 442 pmol
  Conc.: 147 µM
  Percent remaining: 91%
  Zone of inhibition: 1.48 cm
[4]; InA dilution D (10^-4)
  Amount of peptide left: 469 pmol
  Conc.: 156 µM
  Percent remaining: 96%
  Zone of inhibition: 1.49 cm
[5]
  Lethal Concentrations Strep: 5 µM
[6]
  Lethal Concentrations D21: 0.2 µM
[7]; Trypsin dilution A (10^-1)
  Amount of peptide left: 0 pmol
  Conc.: 0 µM
  Percent remaining: 0%
[7]; [11]
  Zone of inhibition: None
[7]; Trypsin dilution B (10^-2)
  Amount of peptide left: 0 pmol
  Conc.: 0 µM
  Percent remaining: 0%
[7]; [12]
  Zone of inhibition: None
[7]; Trypsin dilution C (10^-3)
  Amount of peptide left: 34 pmol
  Conc.: 11 µM
  Percent remaining: 6.8%
[7]; [13]
  Zone of inhibition: 0.93 cm
[7]; Trypsin dilution D (10^-4)
  Amount of peptide left: 131 pmol
  Conc.: 44 µM
  Percent remaining: 27%
[7]; [14]
  Zone of inhibition: 1.25 cm
[7]; [15]
  Amount of peptide left: 373 pmol
  Conc.: 124 µM
  Percent remaining: 77%
[7]; [16]
  Zone of inhibition: 1.45 cm
[8]
  Lethal Concentrations Bs11 +ME: 60 µM
  Lethal Concentrations Bs11: 3 µM
[9]
  Lethal Concentrations Staph: > 300 µM

## CC[C@@H](C)[C@@H](NC(=O)CNC(=O)[C@@H](CC(=O)O)NC(=O)[C@@H](CCCNC(=N)N)NC(=O)[C@H](NC(=O)[C@@H](CC(N)=O)NC(=O)[C@@H](CCC(N)=O)NC(=O)CNC(=O)[C@H](NC(=O)[C@@H](CCCCN)NC(=O)[C@@H](CCC(=O)O)NC(=O)[C@H](NC(=O)[C@@H](CCCCN)NC(=O)[C@@H](CCCCN)NC(=O)[C@@H](Cc1ccccc1)NC(=O)[C@@H](CC(C)C)NC(=O)[C@@H](CCCCN)NC(=O)[C@@H](Cc1c[nH]c2ccccc12)NC(=O)[C@H](N)CCCCN)[C@H](C)CC)C(C)C)[C@H](C)CC)C(=O)N[C@@H](C(=O)N[C@H](CCCCN)C(=O)N[C@H](C)C(=O)NCC(=O)N1CCC[C@@H]1C(=O)N[C@H](C)C(=O)N[C@@H](C(=O)N[C@H](C)C(=O)N[C@@H](C(=O)N[C@@H](C(=O)NCC(=O)N[C@H](CCC(N)=O)C(=O)N[C@H](C)C(=O)N[C@@H](C(=O)N[C@H](CCC(N)=O)C(=O)N[C@@H](C(=O)N[C@H](C)C(=O)N[C@H](CCCCN)C(N)=O)[C@H](C)CC)[C@H](C)O)C(C)C)C(C)C)C(C)C)[C@H](C)CC [Compound 2] (HELM PEPTIDE1{[dK].[dW].[dK].[dL].[dF].[dK].[dK].[dI].[dE].[dK].[dV].G.[dQ].[dN].[dI].[dR].[dD].G.[dI].[dI].[dK].[dA].G.[dP].[dA].[dV].[dA].[dV].[dV].G.[dQ].[dA].[dT].[dQ].[dI].[dA].[dK].[am]}$$$$V2.0)
[1]
  Lethal Concentrations SRC: > 300 µM
[2]
  Lethal Concentrations OT97: 0.8 µM
[3]
  Amount of peptide left: 535 pmol
  Conc.: 178 µM
  Percent remaining: 110%
  Zone of inhibition: 1.55 cm
[4]; InA dilution A (10^-1)
  Amount of peptide left: 512 pmol
  Conc.: 171 µM
  Percent remaining: 106%
[4]; [10]
  Zone of inhibition: 1.54 cm
[4]; InA dilution B (10^-2)
  Amount of peptide left: 468 pmol
  Conc.: 156 µM
  Percent remaining: 96%
  Zone of inhibition: 1.52 cm
[4]; InA dilution C (10^-3)
  Amount of peptide left: 468 pmol
  Conc.: 156 µM
  Percent remaining: 96%
  Zone of inhibition: 1.52 cm
[4]; InA dilution D (10^-4)
  Amount of peptide left: 448 pmol
  Conc.: 149 µM
  Percent remaining: 92%
  Zone of inhibition: 1.51 cm
[5]
  Lethal Concentrations Strep: 2 µM
[6]
  Lethal Concentrations D21: 0.3 µM
[7]; Trypsin dilution A (10^-1)
  Amount of peptide left: 535 pmol
  Conc.: 178 µM
  Percent remaining: 110%
[7]; [11]
  Zone of inhibition: 1.55 cm
[7]; Trypsin dilution B (10^-2)
  Amount of peptide left: 489 pmol
  Conc.: 163 µM
  Percent remaining: 101%
[7]; [12]
  Zone of inhibition: 1.53 cm
[7]; Trypsin dilution C (10^-3)
  Amount of peptide left: 512 pmol
  Conc.: 171 µM
  Percent remaining: 106%
[7]; [13]
  Zone of inhibition: 1.54 cm
[7]; Trypsin dilution D (10^-4)
  Amount of peptide left: 489 pmol
  Conc.: 163 µM
  Percent remaining: 101%
[7]; [14]
  Zone of inhibition: 1.53 cm
[7]; [15]
  Amount of peptide left: 512 pmol
  Conc.: 171 µM
  Percent remaining: 106%
[7]; [16]
  Zone of inhibition: 1.54 cm
[8]
  Lethal Concentrations Bs11 +ME: 30 µM
  Lethal Concentrations Bs11: 3 µM
[9]
  Lethal Concentrations Staph: > 300 µM
